# Values quoted from earlier work as cited in patent US6485514B1 (priority 1997, dated 2002).
# Read-outs that look alike come from different tables or passages of the source.
# Key:
# [1] = test system: human colon cancer xenografts
# [2] = administered intravenously, clinical trials
# [3] = cremaphor vehicle, 6-hour IV infusion
# [4] = test system: drug-refractory ovarian cancer; conditions: in vivo
# [5] = patients
structure (smiles),measurement,setting,value
"CC[C@@]1(O)C(=O)OCc2c1cc1n(c2=O)Cc2cc3c(N)cccc3nc2-1 [9AC, 9-Amino-20(S)-Camptothecin]",anticancer activity against human colon cancer xenografts,[1],high anticancer activity
"CC[C@@]1(O)C(=O)OCc2c1cc1n(c2=O)Cc2cc3cc4c(cc3nc2-1)OCO4 [10,11 MD, 10,11-Methylendioxy-20(S)-Camptothecin]",anticancer activity against human colon cancer xenografts,[1],high anticancer activity
"CC[C@@](O)(C(=O)[O-])c1cc2n(c(=O)c1CO)Cc1cc3ccccc3nc1-2.[Na+] [CPT Na+, Camptothecin Sodium Salt]",clinical outcome (toxicity and potency),[2]; listed as sodium salt of CPT,high toxicity and low potency
same,clinical outcome (toxicity and potency),[2]; Sodium Salt,ineffectiveness and the toxicity
CC(=O)O[C@H]1C(=O)[C@@]2(C)[C@H]([C@H](OC(=O)c3ccccc3)[C@]3(O)C[C@H](OC(=O)[C@H](O)[C@@H](NC(=O)c4ccccc4)c4ccccc4)C(C)=C1C3(C)C)[C@]1(OC(C)=O)CO[C@@H]1C[C@@H]2O [taxol],dose-limiting toxicity,[3],neurotoxicity and leucopenia were dose-limiting
same,activity against drug-refractory ovarian cancer,[4],active agent
same,maximum tolerated dose,[5]; 6-hour IV infusion every 21 days,275 mg/m^2
same,dose-limiting toxicity,[5]; 6-hour IV infusion,Myelosuppression was dose-limiting
